Experimental data: patent US20070099822A1, “Regulation of tissue mineralization and phosphate metabolism by asarm peptides” (priority 2003, published 2007)
Where “and” joins values, the source holds several entries; their conditions need not be identical. Equal entries are not always repeated. Entries after “also recorded” stand apart in the source; their conditions may differ.

Assays:
Assay type in all cases: in vivo
[1] = system: male ICR Swiss mice; experiment: Example VI: subcutaneous PO4-ASARM-peptide or etidronate, calcein fluorescence and Sanderson osteoid staining
Description: Subcutaneous administration of PO4-ASARM-peptide, etidronate (EHDP), and calcein. Three separate groups of male ICR Swiss mice (4-5 weeks) were subcutaneously injected once a day (9:00AM), for 12 days except for days 6 and 7 with 50 μL solutions of either (1) Eitidronate (EHDP) (10 mg/kg/day); (2) PO4-ASARM-peptide (2 mg/kg/day); or (3) vehicle consisting of 5 mM HEPES pH 7.4/150 mM NaCL/0.1% BSA. The synthetic PO4-ASARM-peptide was dissolved in vehicle (1.0 mg/mL). Etidronate was first dissolved in 150 mM NaCl and then buffered to pH 7.5 with 1M NaOH to give a 5 mg/mL solution. The 10 mg/kg/day doses of etidronate have previously been reported to inhibit mineralization in rats and were used as positive controls (Trechsel, et al., Am J Physiol 232(3):E298-305, 1977; Bonjour, et al., Am J Physiol 229(2):402-8, 1975). All three groups were subcutaneously injected with calcein (20 mg/kg/day) on days 3, 5, […]. The degree of calcein fluorescence and/or fluorescence-quenching is an indicator of mineralization status (see next section). The calcein injections when given were administered 1 h after the daily injections of PO4-ASARM-peptide, EHDP or vehicle. Animals were then terminated humanely and calvariae plus femurs/tibia were fixed in 70% ethanol (non-decalcified). After fluorescence imaging (see FIG. 35) calvariae were processed in plastic and stained with Sanderson's stain (see below). Five animals per group were used for statistical analysis of fluorescence quenching and histological Sanderson staining.
Calcein fluorescence in mice calvariae, hind-limbs & fluor-imager analysis of mineralization. A Bio-Rad (Hercules, Calif.) FluorImager^max fluorescent imager was used to simultaneously image all the samples from each of the 3 groups (15 animals; five animals per group). This consisted of 10 tibia/femurs and 5 calvariae per group. Samples were placed on top of the FluorImager plate contained within a light-tight box. Ultra-violet light was used to generate calcein-mediated epi-fluorescence and the fluorescent-image was captured on a −40° C., peltier-cooled, 1,340×1040 pixel CCD resolution, CCD digital-camera. Quantitation of fluorescence was carried out using Quantity-1 (Bio-Rad, Hercules, Calif.) fluorescence-software. Pixel saturation was prevented by internal software calibration and exposure adjustment. All fluorescence readings were thus accurately quantitative and non-saturating. Photo-micrographic UV fluorescent analysis of calvarial cross sections embedded in plastic and mounted as slides (<100 micrometer sections) was also undertaken and a description of the fixation and processing is given in the next section.
Sanderson-staining and fluorescence detection of calvarial osteoid & mineralized bone. Staining of non-decalcified calvarial sections was performed using the method described by Sanderson and Bachus (Staining technique to differentiate mineralized and demineralized bone in ground sections, J Histotechnol 20(2): 119-122, 1997). This technique provides differential staining between unmineralized osteoid and mineralized bone. Prior to staining, calvariae were dissected and attached tissue removed. Calvariae were then placed in 70% ethanol for further fixation as described by Sanderson and Bachus (supra). After fixing and processing undecalcified calvariae were embedded in plastic (LR-white acrylic resin (London Resin Co., Reading, England)) as previously described (Garrett, et al., Selective inhibitors of the osteoblast proteasome stimulate bone formation in vivo and in vitro, J Clin Invest 111(11):1771-1782, 2003). Plastic embedded sections were ground to <100 micrometers using a specialized grinding-pestle as described by Donath and Breuner (A method for the study of undecalcified bones and teeth with attached soft tissues. The Sage-Schliff (sawing and grinding) technique, J Oral Pathol 11(4):318-26, 1982). […]

[2] = system: mice; experiment: Example II: subcutaneous injection twice a day for three weeks, serum and urine; details: for serum phosphate: three weeks, vehicle 9.62; for serum calcium vs vehicle / serum alkaline phosphatase vs vehicle: etidronate 60 mg/kg/day; for serum alkaline phosphatase vs vehicle: ASARM 1.3 and 4 mg/kg/day (both groups); for % FEP vs control: two injections per day over three weeks, ASARM 1.34 and 4.00 mg/kg/day
Description: Four groups of 7 mice were injected subcutaneously twice a day for three weeks. The first group received vehicle only as a control, the second group received etidronate at 60 mg/kg/day, the third group received ASARM peptide at 1.3 mg/kg/day (“low ASARM”), and the fourth group received ASARM peptide at 4 mg/kg/day (“high ASARM”). Calcein/tetracycline was administered to the animals 4 days and 2 days before the end of the protocol for visualization purposes.
(§1) FIGS. 14a and 14b show the Fractional Excretion of Phosphate (FEP) in two different experiments. In the experiment shown in FIG. 14a, each of three groups of mice was treated with one injection per day, over two weeks, of either: (a) vehicle alone, (b) etidronate (10 mg/kg/day), or (c) ASARM peptide (2 mg/kg/day). In the experiment show in FIG. 14b, each of four groups of mice was treated with two injections per day, over three weeks, of either: (a) vehicle alone, (b) etidronate (60 mg/kg/day), (c) ASARM (1.34 mg/kg/day; “ASARM-low”), or (d) ASARM (4.00 mg/kg/day; “ASARM-high”).

[3] = system: mice; experiment: Example III: subcutaneous injection once a day for 12 days, mineralization and phosphate handling; details: ASARM peptide 2 mg/kg/day; for Phosphate Excretion Index (PEI) / increase in urinary calcium levels compared to the control / inhibition in tooth mineralization / inhibition of mineralization in femur / inhibition of mineralization in tibia/femur / mineralization of calvariae and long bones / renal phosphorous clearance vs vehicle / serum calcium vs control / serum phosphate / tubular reabsorption of phosphate vs vehicle / urinary phosphate excreted in a 24-hour period vs control / urine creatinine / urine phosphate / Fractional Excretion of Phosphate (FEP) vs vehicle / inhibition of mineralization of calvariae: etidronate 10 mg/kg/day; for Fractional Excretion of Phosphate (FEP) vs vehicle / inhibition of mineralization of calvariae: s.c. once a day 12 days; for inhibition of mineralization of calvariae: calcein
Description: as §1
Three groups of 5 mice each received a subcutaneous injection once a day for 12 days. […] Calcein was given at 20 mg/kg/day on days 3, 5, 8, and 10 to allow visualization. The first group of mice were given an injection of vehicle only. The second group of mice were given etidronate at 10 mg/kg/day. The third group of mice were given ASARM peptide at 2 mg/kg/day.

[4] = PO4-ASARM-peptide 2 mg/kg/day, etidronate 10 mg/kg/day

CC(O)(P(=O)(O)O)P(=O)(O)O [etidronate, reference compound]
increase of osteoid layer thickness relative to vehicle [1, 4]: 2.35 fold
percentage quenching of calvarial calcein fluorescence relative to vehicle [1, 4]: 48% and 48.4%
calvariae calcein fluorescence ([1]; PO4-ASARM-peptide 2 mg/kg/day, etidronate 10 mg/kg/day, s.c. 12 days, vehicle 1100.5): 417.7 fluorescent intensity units
calvarial osteoid relative thickness (Sanderson staining) ([1]; PO4-ASARM-peptide 2 mg/kg/day, etidronate 10 mg/kg/day, vehicle 2.3): 5.4
lamellar calcein fluorescent layers in calvarial cross-sections ([1]; four layers visible in vehicle group): complete absence
serum phosphate ([2]; etidronate 60 mg/kg/day s.c. twice a day): 10.04 mg/dL
serum calcium vs vehicle ([2]; ASARM 1.3 and 4 mg/kg/day): lower serum calcium levels
serum alkaline phosphatase vs vehicle [2]: significantly higher levels
Phosphate Excretion Index (PEI) [3]: lower PEI
increase in urinary calcium levels compared to the control [3]: 75.9%
inhibition in tooth mineralization [3]: 53.2%
inhibition of mineralization in femur [3]: 15.8%
inhibition of mineralization in tibia/femur [3]: 19.2%
mineralization of calvariae and long bones [3]: greatly inhibited
renal phosphorous clearance vs vehicle [3]: significantly less phosphate clearance
serum calcium vs control [3]: slightly higher level
serum phosphate [3]: induce hyperphosphatemia
tubular reabsorption of phosphate vs vehicle [3]: higher
urinary phosphate excreted in a 24-hour period vs control [3]: far less phosphate
urine creatinine [3]: significant elevation; also recorded: significantly elevated
urine phosphate [3]: induced hypophosphaturia
Fractional Excretion of Phosphate (FEP) vs vehicle [3]: significantly lower
inhibition of mineralization of calvariae [3]: 48.4%

ASARM peptide: ASARM peptide injected subcutaneously in Examples II and III; sequence and phosphorylation not stated; data resemble PO4-ASARM-peptide of Example VI (RDDSSESSDSGSSSESDGD)
urinary phosphate excretion over 24 hours vs etidronate and control groups ([2]; ASARM 1.3 and 4 mg/kg/day): significantly higher
serum phosphate ([2]; ASARM high, 4 mg/kg/day s.c. twice a day): 10.01 mg/dL
serum phosphate ([2]; ASARM low, 1.3 mg/kg/day s.c. twice a day): 10.60 mg/dL
serum calcium vs vehicle ([2]; ASARM 1.3 and 4 mg/kg/day): lower serum calcium levels
serum alkaline phosphatase vs vehicle [2]: levels similar to that of the vehicle; also recorded: levels similar to that of the control
% FEP vs control [2]: increase in FEP
% FEP vs control ([2]; listed as ASARM): much higher % FEP levels
serum alkaline phosphatase vs etidronate or vehicle groups [3]: lower levels
increase in urinary calcium levels compared to the control [3]: 56.3%
inhibition in tooth mineralization [3]: 35.3%
inhibition of mineralization in femur [3]: 44.6%
inhibition of mineralization in tibia/femur [3]: 24.4%
mineralization of calvariae and long bones [3]: mineralization was inhibited
serum calcium vs control [3]: did not show a significantly elevated level
tubular reabsorption of phosphate vs vehicle [3]: higher
urinary phosphate excreted in a 24-hour period vs control [3]: far less phosphate
urine creatinine [3]: significant elevation; also recorded: significantly elevated
urine phosphate [3]: induced hypophosphaturia
Phosphate Excretion Index (PEI) ([3]; listed as ASARM): much lower PEI
mineralization of calvariae and long bones ([3]; listed as ASARM): greatly inhibited
renal phosphorous clearance vs vehicle ([3]; listed as ASARM): significantly less phosphate clearance
serum phosphate ([3]; listed as ASARM): induced hyperphosphatemia
urinary phosphate excreted in a 24-hour period vs control ([3]; listed as ASARM): far less
urine phosphate ([3]; listed as ASARM): hypophosphaturia
% FEP vs control ([3]; one injection per day over two weeks): significantly lower % FEP; also recorded: decrease in FEP
Fractional Excretion of Phosphate (FEP) vs vehicle [3]: significantly lower; also recorded: decreased
inhibition of mineralization of calvariae [3]: 62.0%
